# Experimental data taken from ChEMBL document CHEMBL5226282, “TLR2 Agonistic Small Molecules: Detailed Structure-Activity Relationship, Applications, and Future Prospects” (J Med Chem, 2021).
# *1 amine or outer side, *2 acyl side, *3 side chain or, on linkers, in order; H or OH if unused. Where a SMILES comes first, the peptide text is derived from it. [ ]: non-standard residue; d: D form. The star is where a group is joined. X1 = CCCCCCCCCCCCCCCC(=O)OCC(CCCC(N[*:1])C(=O)[*:2])OC(=O)CCCCCCCCCCCCCCC; Palmitoyl = CCCCCCCCCCCCCCCC(=O)*
# Tests used:
# TLR2/TLR6 (Homo sapiens) = TLR2/TLR6 (Homo sapiens) (UniProt O60603+Q9Y2C9); experiment: Agonist activity at TLR2/TLR6 (unknown origin) assessed as induction of IL-8 production relative to control; assay type: protein-complex assay
# Toll-like receptor 1/2 = Toll-like receptor 1/2 (Homo sapiens, UniProt O60603+Q15399); experiment: Agonist activity at TLR2/TLR1 (unknown origin); assay type: protein-complex assay
# Toll-like receptor 1/2, sequence (O60603 whole entry): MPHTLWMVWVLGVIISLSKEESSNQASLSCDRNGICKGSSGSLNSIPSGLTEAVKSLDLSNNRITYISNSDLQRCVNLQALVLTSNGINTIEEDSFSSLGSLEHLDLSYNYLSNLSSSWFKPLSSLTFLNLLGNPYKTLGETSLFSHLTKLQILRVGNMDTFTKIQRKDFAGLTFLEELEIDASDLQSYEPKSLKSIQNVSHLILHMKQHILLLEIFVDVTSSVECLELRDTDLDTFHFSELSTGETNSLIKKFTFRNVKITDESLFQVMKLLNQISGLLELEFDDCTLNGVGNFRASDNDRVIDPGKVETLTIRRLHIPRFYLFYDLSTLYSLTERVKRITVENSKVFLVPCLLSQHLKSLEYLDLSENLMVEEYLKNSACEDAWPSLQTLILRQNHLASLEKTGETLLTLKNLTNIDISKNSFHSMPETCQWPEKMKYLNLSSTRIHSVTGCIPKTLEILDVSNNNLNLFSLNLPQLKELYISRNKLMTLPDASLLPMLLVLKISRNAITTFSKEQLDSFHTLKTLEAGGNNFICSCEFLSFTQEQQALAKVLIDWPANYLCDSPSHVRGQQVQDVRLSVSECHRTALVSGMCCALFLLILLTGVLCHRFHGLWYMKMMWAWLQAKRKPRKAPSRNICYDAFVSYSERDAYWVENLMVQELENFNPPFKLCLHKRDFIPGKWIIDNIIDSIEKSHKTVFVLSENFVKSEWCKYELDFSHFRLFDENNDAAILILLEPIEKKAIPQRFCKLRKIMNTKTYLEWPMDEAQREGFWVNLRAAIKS
# Toll-like receptor 1/2, sequence (Q15399 whole entry): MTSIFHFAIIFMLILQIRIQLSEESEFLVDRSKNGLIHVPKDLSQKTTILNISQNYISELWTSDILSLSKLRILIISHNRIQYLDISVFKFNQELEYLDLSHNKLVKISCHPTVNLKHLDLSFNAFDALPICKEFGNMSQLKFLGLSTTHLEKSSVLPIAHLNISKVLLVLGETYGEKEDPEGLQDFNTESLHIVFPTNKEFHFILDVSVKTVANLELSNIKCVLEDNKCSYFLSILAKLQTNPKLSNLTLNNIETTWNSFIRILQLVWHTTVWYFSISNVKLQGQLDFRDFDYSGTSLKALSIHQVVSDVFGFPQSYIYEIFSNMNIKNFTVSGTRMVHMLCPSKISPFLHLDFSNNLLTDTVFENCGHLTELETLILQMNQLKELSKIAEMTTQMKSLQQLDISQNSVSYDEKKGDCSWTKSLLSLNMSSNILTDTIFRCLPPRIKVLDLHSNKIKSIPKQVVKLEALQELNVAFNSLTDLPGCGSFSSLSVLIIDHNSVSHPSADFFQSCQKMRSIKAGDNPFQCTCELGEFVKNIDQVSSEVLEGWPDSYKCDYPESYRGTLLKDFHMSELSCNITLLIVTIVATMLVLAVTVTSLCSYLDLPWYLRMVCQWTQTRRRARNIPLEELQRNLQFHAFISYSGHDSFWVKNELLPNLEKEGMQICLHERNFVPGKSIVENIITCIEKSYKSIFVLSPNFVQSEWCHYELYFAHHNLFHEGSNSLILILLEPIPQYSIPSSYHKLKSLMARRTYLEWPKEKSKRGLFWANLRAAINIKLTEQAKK
Activity (TLR2/TLR6 (Homo sapiens)) [%],EC50 (Toll-like receptor 1/2) [µM],Structure (SMILES)
23,,CCCCCCCCCCCCCCCC(=O)NC(CCCC(COC(=O)CCCCCCCCCCCCCCC)OC(=O)CCCCCCCCCCCCCCC)C(=O)N[C@@H](CO)C(=O)N[C@@H](CO)C(=O)N[C@@H](CC(N)=O)C(=O)N[C@@H](C)C(=O)N[C@@H](CO)C(=O)N[C@@H](CCCCN)C(=O)N[C@@H](CCCCN)C(=O)N[C@@H](CCCCN)C(=O)N[C@@H](CCCCN)C(=O)O (some centres not stated) (Palmitoyl-[X1]SSNASKKKK-OH)
,5.2,CNc1ccc([N+](=O)[O-])cc1-n1cnc(-c2ccc(C(F)(F)F)cc2)c1
